Kd data for one sequence are collected here from publication PMC7970798 (Computational and Structural Biotechnology Journal, 2021).

No end group written: not given here.

For this assay, the target named is PALS1 F318W (Homo sapiens, UniProt Q8N3R9, F318W). The experiment in a line: biochemical. Format: binding.
Chain of PALS1 F318W (Q8N3R9 256-336 F318W limits assumed): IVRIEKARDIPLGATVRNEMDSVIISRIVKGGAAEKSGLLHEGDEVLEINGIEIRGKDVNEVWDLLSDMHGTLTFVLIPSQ

As for “VKNLNSSRVPDLLV [SARS-CoV-2, VKNLNSSRVPDLLV]”, the affinity, expressed as Kd, was 29 ± 4 µM.
